Assays:
Assay type in all cases: functional
Jurkat [1] = test: Antiproliferative activity against human Jurkat cells assessed as proliferation index at 10 uM after 24 hrs using CFSE staining by flow cytometry relative to original parent cells (reference value: 2.48)
Jurkat [2] = test: Antiproliferative activity against human Jurkat cells assessed as non proliferative fraction at 10 uM after 24 hrs using CFSE staining by flow cytometry (reference value: 0.59)
Jurkat [3] = test: Antiproliferative activity against human Jurkat cells assessed as parent population at 10 uM after 24 hrs using CFSE staining by flow cytometry (reference value: 23.70 %)
Jurkat [4] = test: Antiproliferative activity against human Jurkat cells assessed as 5th generation cell population at 10 uM after 24 hrs using CFSE staining by flow cytometry (reference value: 18.43 %)
Jurkat [5] = test: Antiproliferative activity against human Jurkat cells assessed as proliferation index of >/= 3rd generation cells at 10 uM after 24 hrs using CFSE staining by flow cytometry relative to original parent cells
Jurkat [6] = test: Antiproliferative activity against human Jurkat cells assessed as 4th generation cell population at 10 uM after 24 hrs using CFSE staining by flow cytometry (reference value: 25. 99 %)
Jurkat [7] = test: Antiproliferative activity against human Jurkat cells assessed as 3rd generation cell population at 10 uM after 24 hrs using CFSE staining by flow cytometry relative to control
Jurkat [8] = test: Antiproliferative activity against human Jurkat cells assessed as 2nd generation cell population at 10 uM after 24 hrs using CFSE staining by flow cytometry relative to control
Jurkat [9] = test: Inhibition of cell division in human Jurkat cells at 1 uM

| Compound | Ratio (Jurkat [1]) | Ratio (Jurkat [2]) | Activity (Jurkat [3]) [%] | Activity (Jurkat [4]) [%] | Ratio (Jurkat [5]) | Activity (Jurkat [6]) [%] | Activity (Jurkat [7]) [%] | Activity (Jurkat [8]) [%] | inhibition at 1 µM (Jurkat [9]) [%] |
| --- | --- | --- | --- | --- | --- | --- | --- | --- | --- |
| C[C@@H](CC[C@H]1OC1(C)C)c1cc(O)ccc1O (relative stereo) | 6.47 | 0.39 | 6.02 | 64.37 | 10.81 |  |  |  |  |
| CC[C@H](CC[C@H]1OC1(C)C)c1cc(O)ccc1O (relative stereo) | 2.73 | 0.59 | 21.49 | 11.8 | 6.16 | 13.9 | 35.78 |  |  |
| CC1(C)OC1CCCc1cc(O)ccc1O (stereo unspecified) | 1.11 | 0.94 | 84.84 |  | 4.76 |  |  | 7.31 |  |
| CC[C@H](CC[C@H]1OC1(C)C)c1ccccc1O (relative stereo) | 4.38 | 0.46 | 10.46 | 33.67 | 9.29 |  |  |  |  |
| CC[C@@H](CC[C@H]1OC1(C)C)c1cc(O)ccc1O (relative stereo) | 3.04 | 0.62 | 20.3 | 18.48 | 7.93 | 20.47 | 21.3 |  |  |
| Cc1cc(O)c([C@H](C)CC[C@@H]2CO2)cc1O (relative stereo) | 1.85 | 0.86 | 46.39 | 18.91 | 7.64 |  |  |  |  |
| CC[C@H](CC[C@@H]1CO1)c1cc(O)ccc1O (relative stereo) | 5.01 | 0.42 | 8.46 | 47.67 | 10.24 |  |  |  |  |
| Cc1ccc([C@@H](C)CC[C@H]2OC2(C)C)c(O)c1 (relative stereo) | 4.77 | 0.41 | 8.71 | 38.84 | 9.67 |  |  |  |  |
| CC[C@H](CC[C@@H](C)O)c1ccccc1O (relative stereo) | 6.11 | 0.32 | 5.19 | 46.79 | 10.18 |  |  |  |  |
| CC[C@@H](CC[C@@H]1CO1)c1cc(O)ccc1O (relative stereo) | 5.06 | 0.4 | 7.95 | 48.54 | 10.11 |  |  |  |  |
| Cc1cc(O)c([C@H](C)CC[C@H]2OC2(C)C)cc1O (relative stereo) | 1.62 | 0.87 | 53.81 |  | 8.05 | 13.9 |  |  | 100 |
| CC[C@@H](CC[C@H]1OC1(C)C)c1ccccc1O (relative stereo) | 4.1 | 0.48 | 11.75 | 29.37 | 8.5 |  |  |  |  |
| Cc1ccc([C@@H](C)CC[C@@H]2CO2)c(O)c1 (relative stereo) | 5.71 | 0.3 | 5.27 | 40.06 | 9.25 |  |  |  |  |
| Cc1ccc([C@H](C)CC[C@@H]2CO2)c(O)c1 (relative stereo) | 5.86 | 0.37 | 6.23 | 47.87 | 10.07 |  |  |  |  |
| Cc1cc(O)c([C@@H](C)CC[C@H]2OC2(C)C)cc1O (relative stereo) | 1.36 | 0.92 | 67.44 |  | 6.14 |  | 17.04 |  | 100 |
| Cc1cc(O)c([C@@H](C)CC[C@@H]2CO2)cc1O (relative stereo) | 1.09 | 0.98 | 89.59 |  | 5.7 |  | 6.73 |  |  |
| Cc1ccc([C@H](C)CC[C@H]2OC2(C)C)c(O)c1 (relative stereo) | 5.2 | 0.42 | 8.09 | 49.3 | 10.46 |  |  |  |  |

Reference: ChEMBL document CHEMBL2157992, “SAR studies of epoxycurcuphenol derivatives on leukemia CT-CD4 cells” (2012)
